Test results as given in publication PMC2878737 (Channels (Austin, Tex.), 2009).

Key:
NaV1.2 = NaV1.2 (Rattus norvegicus, UniProt P04775)
NaV1.2[F385C] = NaV1.2[F385C] (Rattus norvegicus, UniProt P04775, F385C); conditions: cited from earlier work
NaV1.2[F385C], sequence (P04775 whole entry F385C, looked up): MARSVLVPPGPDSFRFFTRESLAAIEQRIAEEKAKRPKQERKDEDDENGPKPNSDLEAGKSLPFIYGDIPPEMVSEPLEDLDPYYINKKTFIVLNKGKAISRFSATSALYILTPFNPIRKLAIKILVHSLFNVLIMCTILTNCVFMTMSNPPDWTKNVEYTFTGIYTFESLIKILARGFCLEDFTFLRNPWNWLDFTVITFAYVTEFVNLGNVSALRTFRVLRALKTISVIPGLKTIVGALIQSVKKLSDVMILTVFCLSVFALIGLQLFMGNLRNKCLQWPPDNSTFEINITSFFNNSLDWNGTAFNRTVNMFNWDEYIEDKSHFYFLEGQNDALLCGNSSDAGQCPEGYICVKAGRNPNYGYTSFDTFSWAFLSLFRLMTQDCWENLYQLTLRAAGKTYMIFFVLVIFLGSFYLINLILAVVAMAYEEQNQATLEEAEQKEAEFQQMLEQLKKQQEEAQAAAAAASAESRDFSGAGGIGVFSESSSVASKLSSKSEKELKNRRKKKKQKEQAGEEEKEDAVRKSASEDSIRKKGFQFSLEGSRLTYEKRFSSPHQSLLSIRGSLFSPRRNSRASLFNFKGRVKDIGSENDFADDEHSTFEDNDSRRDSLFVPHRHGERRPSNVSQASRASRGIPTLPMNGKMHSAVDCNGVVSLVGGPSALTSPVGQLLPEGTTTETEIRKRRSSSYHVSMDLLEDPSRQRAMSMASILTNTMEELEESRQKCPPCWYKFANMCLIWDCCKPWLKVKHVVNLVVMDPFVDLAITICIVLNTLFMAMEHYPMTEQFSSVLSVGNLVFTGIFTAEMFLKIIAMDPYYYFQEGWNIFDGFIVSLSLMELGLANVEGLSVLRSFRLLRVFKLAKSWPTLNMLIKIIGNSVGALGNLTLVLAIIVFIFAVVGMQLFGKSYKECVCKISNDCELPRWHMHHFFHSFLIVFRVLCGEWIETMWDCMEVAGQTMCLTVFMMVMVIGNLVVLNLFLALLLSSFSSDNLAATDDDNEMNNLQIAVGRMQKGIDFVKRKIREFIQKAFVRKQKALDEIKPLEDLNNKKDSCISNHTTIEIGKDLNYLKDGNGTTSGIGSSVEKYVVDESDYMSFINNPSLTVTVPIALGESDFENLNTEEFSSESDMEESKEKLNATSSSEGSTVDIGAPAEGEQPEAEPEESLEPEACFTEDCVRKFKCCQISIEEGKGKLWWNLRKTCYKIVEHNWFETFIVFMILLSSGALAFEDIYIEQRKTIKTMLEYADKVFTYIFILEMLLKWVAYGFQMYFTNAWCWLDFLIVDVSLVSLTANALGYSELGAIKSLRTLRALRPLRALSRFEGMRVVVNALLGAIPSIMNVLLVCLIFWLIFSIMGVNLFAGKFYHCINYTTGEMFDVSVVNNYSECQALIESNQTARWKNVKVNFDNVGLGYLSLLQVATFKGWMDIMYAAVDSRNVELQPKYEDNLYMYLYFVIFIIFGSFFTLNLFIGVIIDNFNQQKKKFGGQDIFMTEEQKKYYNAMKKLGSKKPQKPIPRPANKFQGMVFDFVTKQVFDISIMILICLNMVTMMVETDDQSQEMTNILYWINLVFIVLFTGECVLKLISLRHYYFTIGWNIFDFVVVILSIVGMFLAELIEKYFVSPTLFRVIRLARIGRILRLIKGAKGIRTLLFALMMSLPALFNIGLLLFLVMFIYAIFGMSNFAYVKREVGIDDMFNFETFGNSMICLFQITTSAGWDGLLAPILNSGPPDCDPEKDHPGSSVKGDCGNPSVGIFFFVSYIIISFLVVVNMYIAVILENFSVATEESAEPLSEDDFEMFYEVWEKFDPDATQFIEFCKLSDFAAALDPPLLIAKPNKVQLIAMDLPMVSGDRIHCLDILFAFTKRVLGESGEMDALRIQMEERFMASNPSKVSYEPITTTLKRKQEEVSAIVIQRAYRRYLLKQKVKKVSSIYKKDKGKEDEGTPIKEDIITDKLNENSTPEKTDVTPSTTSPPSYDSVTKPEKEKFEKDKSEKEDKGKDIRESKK

NaV1.2, sequence (P04775 whole entry, looked up): as the sequence (P04775 whole entry F385C, looked up) above, with C385F counted along it

NC1=N[C@H](O)[C@H]2[C@H]3O[C@]4(O)O[C@@H]([C@@H](O)[C@@]2(N1)[C@@H]4O)[C@]3(O)CO [TTX, Tetrodotoxin]
Plateau of block at saturating [toxin] (Langmuir fit) (NaV1.2): 100%
sensitivity of NaV1.2[F385C] (NaV1.2[F385C]): insensitive
